Measured values as given in patent US7217739B2, “Method for inducing cell death with carbonyl scavengers” (Arizona Board of Regents on behalf of the University of …, priority 2004, dated 2007).

Assays:
human A431 cells = assay: Apoptosis in squamous cell carcinoma line A431; format: cell-based; conditions: 10 mM, 24 hours
Procedure: In each case, 10 mM of the test compound was used, over 24 hours, on human A431 cells, and apoptosis was measured as described, supra.

[1] = tested on: human melanoma line A-375; assay: Apoptosis by annexin V-FITC/propidium iodide flow cytometry, A-375 melanoma; format: cell-based
Procedure: (§1) The murine melanoma cell line B16 was used, as were three human melanoma lines, i.e., G-361, A-375, and LOX. Samples of the cells were exposed to 10 mM of D-penicillamine continuously, over a 24 hour period. Apoptosis was measured using a standard assay, i.e., flow cytometric staining using annexin V-FITC/propidium iodide. As a control, normal human skin fibroblasts, i.e., “CF3” cells, were used.
(§2) Malignant human melanoma cells A375, and normal fibroblasts (CF3), were tested, using 10 mM of MEC, with 24 hours of exposure.

[2] = tested on: human melanoma cell line G-361; assay: Apoptosis by annexin V-FITC/propidium iodide flow cytometry, G-361 melanoma; format: cell-based; conditions: G-361 cells
Procedure: as §1
The compound D-penicillamine (D-P), aminoguanidine (AG), N-acetyl-D-penicillamine (NAP), N-acetyl-L-cysteine (NAC), and penicillamine disulfide (PSS) were tested. D-P, NAC and NAP are known as antioxidants. D-P and aminoguanidine are known as carbonyl scavengers.

[3] = tested on: Human HeLa cervical adenocarcinoma cells; assay: Apoptosis in HeLa cervical adenocarcinoma cells; format: cell-based
Procedure: The efficacy of the compounds on other cancers, epithelial cancers in particular, was determined. Human HeLa cervical adenocarcinoma cells were used, and tested with D-penicillamine, at 10 mM, and aminoguanidine, at 25 mM.

[4] = tested on: A375 melanoma cells in collagen matrix; assay: Dermal melanoma reconstruct, melanoma cells; format: cell-based, human; conditions: 12.5 mM; A375 and CF3 cells embedded in a collagen matrix
Excerpt: (§3) A dermal melanoma reconstruct was made, where both CF3 fibroblast and A375 melanoma cells were embedded in a collagen matrix. Seventy two hours after “seeding” in the matrix, the melanoma cells have proliferated extensively, as the controls show, in FIG. 7.

[5] = tested on: CF3 fibroblast in collagen matrix; assay: Dermal melanoma reconstruct, fibroblast network; format: cell-based, human; conditions: 12.5 mM; A375 and CF3 cells embedded in a collagen matrix
Excerpt: as §3

[6] = tested on: murine melanoma cell line B16; assay: Apoptosis by annexin V-FITC/propidium iodide flow cytometry, B16 melanoma; format: cell-based; conditions: B16 cells; continuous 24 hour exposure; D-penicillamine 10 mM
Procedure: as §1

[7] = tested on: normal human skin fibroblasts CF3; assay: Apoptosis by annexin V-FITC/propidium iodide flow cytometry, normal CF3 fibroblasts; format: cell-based
Procedure: as §1, §2

human melanoma line LOX = assay: Apoptosis by annexin V-FITC/propidium iodide flow cytometry, LOX melanoma; format: cell-based; conditions: LOX cells; continuous 24 hour exposure; D-penicillamine 10 mM
Procedure: as §1

[8] = tested on: premalignant, immortalized human keratinocytes HaCaT; assay: Apoptosis in premalignant immortalized keratinocytes; format: cell-based; conditions: HaCaT cells; 12.5 mM; continuous over 24 hours
Procedure: In these experiments, D-penicillamine was added, at a concentration of 12.5 mM, to premalignant, immortalized human keratinocytes, or “HaCaT” cells, and the exposure was Continuous over 24 hours.

[9] = Example 6, concentration not given

COC(=O)[C@H](N)C(C)(C)S [D-penicillamine methyl ester]
induction of apoptosis (human A431 cells): induction of apoptosis | induction of apoptosis (human A431 cells; listed as D-P—OCH3): stronger apoptotic effect

CC(C)(S)[C@@H](N)C(=O)O [D-penicillamine, 3-mercapto-D-valine]
induction of apoptosis ([1]; A-375 cells, continuous 24 hour exposure, D-penicillamine 10 mM): apoptosis was induced | induction of apoptosis [2, 9]: induced apoptosis | induction of apoptosis ([2]; continuous 24 hour exposure, D-penicillamine 10 mM): apoptosis was induced | induction of apoptosis (human A431 cells): induction of apoptosis | induction of apoptosis ([3]; 10 mM): apoptosis inducers | elimination of melanoma cells from dermal melanoma reconstruct [4]: eliminated the melanoma cells | structure integrity of the fibroblast collagen network [5]: maintained the structure integrity of the fibroblast collagen network | induction of apoptosis [6]: apoptosis was induced | induction of apoptosis ([7]; normal CF3 cells, continuous 24 hour exposure, D-penicillamine 10 mM): no change | induction of apoptosis (human melanoma line LOX): apoptosis was induced | induction of apoptosis [8]: apoptosis is indicated

CCC(C)(S)[C@H](N)C(=O)O (stereo partly drawn) [MEC, 3-methyl-3-ethyl-L-cysteine]
induction of apoptosis ([1]; A375 cells, 10 mM of MEC, 24 hours of exposure): Pronounced induction of apoptosis | induction of apoptosis ([7]; normal CF3 fibroblasts, 10 mM of MEC, 24 hours of exposure): none was observed

N=C(N)NN [aminoguanidine]
induction of apoptosis [2, 9]: induced apoptosis | induction of apoptosis ([3]; 25 mM): apoptosis inducers
